Assay results from patent US20250027035A1, “HEAVY METAL-ANTIBIOTIC MULTIPLE RESISTANT BACTERIA AND ITS APPLICATION” (priority 2023, published 2025).

The molecules below were run on Rossellomorea oryzaecorticis ZC255 (assay: Drug sensitivity test of strains (antibiotic tolerance)). Conditions: not given.
Type: cell-based
For Results of drug sensitivity test of strains in this document: key: R: resistance; S: sensitivity; I: betweenness.

Molecule	Results of drug sensitivity test of strains	drug sensitivity of the strain, result in words
CC1(C)S[C@@H]2[C@H](NC(=O)[C@H](N)c3ccccc3)C(=O)N2[C@H]1C(=O)O [Ampicillin]	S	–
CC1(C)S[C@@H]2[C@H](NC(=O)C(C(=O)O)c3ccccc3)C(=O)N2[C@H]1C(=O)O (stereo partly shown) [Carbenicillin]	S	–
CO/N=C(\C(=O)N[C@@H]1C(=O)N2C(C(=O)O)=C(COC(C)=O)CS[C@H]12)c1csc(N)n1 [Cefotaxime]	I	–
CO/N=C(\C(=O)N[C@@H]1C(=O)N2C(C(=O)O)=C(CSc3nc(=O)c(=O)[nH]n3C)CS[C@H]12)c1csc(N)n1 [Ceftriaxone]	R	drug resistance
O=C(N[C@H](CO)[C@H](O)c1ccc([N+](=O)[O-])cc1)C(Cl)Cl [Chloramphenicol]	S	–
CC[C@H]1OC(=O)[C@H](C)[C@@H](O[C@H]2C[C@@](C)(OC)[C@@H](O)[C@H](C)O2)[C@H](C)[C@@H](O[C@@H]2O[C@H](C)C[C@H](N(C)C)[C@H]2O)[C@](C)(OC)C[C@@H](C)C(=O)[C@H](C)[C@@H](O)[C@]1(C)O [Clarithromycin]	S	–
CC[C@H]1OC(=O)[C@H](C)[C@@H](O[C@H]2C[C@@](C)(OC)[C@@H](O)[C@H](C)O2)[C@H](C)[C@@H](O[C@@H]2O[C@H](C)C[C@H](N(C)C)[C@H]2O)[C@](C)(O)C[C@@H](C)C(=O)[C@H](C)[C@@H](O)[C@]1(C)O [Erythromycin]	R	drug resistance
NC[C@H]1O[C@H](O[C@H]2[C@H](O)[C@@H](O[C@H]3O[C@H](CO)[C@@H](O)[C@H](N)[C@H]3O)[C@H](N)C[C@@H]2N)[C@H](O)[C@@H](O)[C@@H]1O [Kanamycin]	R	–
CCC[C@@H]1C[C@@H](C(=O)N[C@@H]([C@H]2O[C@H](SC)[C@H](O)[C@@H](O)[C@H]2O)[C@@H](C)O)N(C)C1 [Lincomycin]	R	drug resistance
CCn1cc(C(=O)O)c(=O)c2cc(F)c(N3CCNCC3)cc21 [Norfloxacin]	R	drug resistance
CC1COc2c(N3CCN(C)CC3)c(F)cc3c(=O)c(C(=O)O)cn1c23 (stereo not shown) [Ofloxacin]	R	–
CO[C@H]1/C=C/O[C@@]2(C)Oc3c(C)c(O)c4c(O)c(c(/C=N/N5CCN(C)CC5)c(O)c4c3C2=O)NC(=O)/C(C)=C\C=C\[C@H](C)[C@H](O)[C@@H](C)[C@@H](O)[C@@H](C)[C@H](OC(C)=O)[C@@H]1C [Rifampicin]	I	–
[H]/N=C(/N)N[C@H]1[C@H](O)[C@@H](O)[C@H](O[C@@H]2O[C@@H](C)[C@](O)(C=O)[C@H]2O[C@@H]2O[C@@H](CO)[C@H](O)[C@@H](O)[C@@H]2NC)[C@@H](N/C(N)=N\[H])[C@@H]1O [Streptomycin]	R	drug resistance
CN(C)[C@@H]1C(O)=C(C(N)=O)C(=O)[C@@]2(O)C(O)=C3C(=O)c4c(O)cccc4[C@@](C)(O)[C@H]3C[C@@H]12 [Tetracycline]	R	–
NC[C@H]1O[C@H](O[C@H]2[C@H](O)[C@@H](O[C@H]3O[C@H](CO)[C@@H](O)[C@H](N)[C@H]3O)[C@H](N)C[C@@H]2N)[C@H](N)C[C@@H]1O [Tobramycin]	R	drug resistance
CN[C@H](CC(C)C)C(=O)N[C@H]1C(=O)N[C@@H](CC(N)=O)C(=O)N[C@H]2C(=O)N[C@H]3C(=O)N[C@H](C(=O)N[C@H](C(=O)O)c4cc(O)cc(O)c4-c4cc3ccc4O)[C@H](O)c3ccc(c(Cl)c3)Oc3cc2cc(c3O[C@@H]2O[C@H](CO)[C@@H](O)[C@H](O)[C@H]2O[C@H]2C[C@](C)(N)[C@H](O)[C@H](C)O2)Oc2ccc(cc2Cl)[C@H]1O [Vancomycin]	S	–
Gentamicin	R	drug resistance
Neomycin	R	drug resistance
Penicillin	S	–
Polymyxin B	R	drug resistance

The molecules below were run on Rossellomorea oryzaecorticis ZC255 (assay: Metal tolerance of the strain in 2216E liquid medium containing heavy metal). Conditions: 2216E liquid medium containing the heavy metal.
Type: cell-based
Method: • Step 1: the single colonies in Embodiment 1 ‘2.1 morphological characteristics’ are selected and added to the 2216E liquid medium for 24 h to obtain the seed liquid, and then it is added to the liquid containing heavy metals or antibiotics for 48 h. • Step 2: the concentration of heavy metals/antibiotics before and after the addition of seed solution is measured by atomic absorption.
In addition, the highest tolerance concentration of the strain to Cd2+is 820 mg/L; the highest tolerance concentration of Zn2+, Ni2+, Pb2+and Cr3+is 2660 mg/L, 1210 mg/L, 1640 mg/L and 400 mg/L respectively.

Molecule	maximum (highest) tolerance concentration of the strain
[Cd+2] [Cd2+]	820 mg/L
[Cr+3] [Cr3+]	400 mg/L
[Ni+2] [Ni2+]	1210 mg/L
[Pb+2] [Pb2+]	1640 mg/L
[Zn+2] [Zn2+]	2660 mg/L
